A short description of the series: gradient 5% acetonitrile 3 min, to 50% in 2 min, to 85% in 15 min, held 3 min, 100 µL/min. The settings on record: column: Zorbax Extend-C18 2.1 x 50 mm; eluents: water / acetonitrile, 0.1% formic acid. The gist of the method: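 Standards, all pure, were combined into mixtures of ~100 molecules and run at 100 μL/min on a Zorbax Extend-C18 column (2.1 × 50 mm, 1.8 μm) with water and acetonitrile, each containing 0.1% formic acid. A coupled quadrupole time-of-flight mass spectrometer operated in positive and negative ionization mode. Retention time values come from computationally picked adduct peaks, each inspected manually.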
Take `Cc1ccc2c(C(=O)N3CCN(CC(C)C)CC3)cc(NC(=O)C3CCC3)cc2n1`: the RP-LC retention time was determined as 562 s.
As for `CCc1cc(=O)n(CC(=O)Nc2cc(C)ccc2C)c(N2CCOCC2)n1`, the figure is 747 s; as for `CN1CCN(CCNC(=O)CSCc2nc3cccnc3n2C2CCCCC2)CC1`, 600 s; as for `O=c1ccc(-c2ccccc2F)nn1Cc1nc(-c2ccc3c(c2)OCO3)no1`, 944 s.
In the case of `CC1=NS(=O)(=O)N(Cc2ccccc2)C=C1C(=O)OCc1nc(-c2ccccc2)no1` it was 1120 s.
In the case of `Cc1ccccc1NC(=O)c1nnc(CSCC(=O)N2CCN(c3ccccn3)CC2)s1` it was 637 s.
With `CCOc1ccc(NC(=O)C2CCN(S(=O)(=O)c3ccc4c(c3)NC(=O)C(C)O4)CC2)cc1` (stereo not given), the RP-LC retention time came to 880 s.
`O=C(C1CCN(c2cc(N3CCOCC3)ncn2)CC1)N1CCN(c2ccccc2)CC1` yielded an RP-LC retention time of 640 s.
In the case of `CCc1ccc(CNC(=O)Cn2c(CC)nc3c(c2=O)CN(Cc2ccccc2)CC3)cc1` it was 707 s.
As for `CN1C(=O)c2ccccc2Oc2ccc(C(=O)NCc3ccc(F)cc3)cc21`, the figure is 868 s; as for `CCOC(=O)C1=C(CN2CCc3ccccc3C2)NC(=O)NC1c1cccc(OC)c1OC` (stereo not given), 660 s; as for `COc1cc(C2CC(=O)c3c([nH]c(C(=O)OCC4CCCCC4)c3C)C2)cc(OC)c1OC` (stereo not given), 1180 s.
As for `CCOc1ccc(OCC)c(NS(=O)(=O)c2cc(-c3c(C)noc3NC(C)=O)ccc2OC)c1`, the figure is 864 s; as for `COc1ccc(OCc2nn3c(-c4ccc(OC)c(OC)c4)nnc3s2)cc1`, 867 s; as for `O=C(NCc1cccs1)C1CCN(C(=O)c2cc(-c3ccncc3)n[nH]2)CC1`, 572 s.
In turn, `COc1ccc(Cl)cc1NC(=O)c1n[nH]c2ccccc12` yielded an RP-LC retention time of 1010 s.
In the case of `COc1ccc(NC(=O)Cn2nc3n(c2=O)CCCC3)cc1Cl` it was 674 s.
In the case of `CCN(Cc1ccccc1)c1ccc(-c2noc(CN3CCSCC3)n2)cn1` it was 1030 s.
In the case of `COc1ccc(-c2nc(C)cc(C)c2CNS(=O)(=O)c2ccccc2C)cc1` it was 658 s.
`COCCC(=O)NCCC1CCN(C(=O)Nc2cc(F)ccc2F)CC1` registered an RP-LC retention time of 675 s.
As for `COc1ccc(OCC(=O)N2CCCC2c2nc(-c3ccccc3)no2)cc1` (stereo not given), the figure is 930 s; as for `CCC(=O)NCc1nc2c(n1CC)CN(C(=O)c1ccc(C(F)(F)F)s1)CC2`, 579 s; as for `O=C1NCCCn2cc(S(=O)(=O)Nc3cccc(Cl)c3)cc21`, 680 s.
For `CCc1cccc(C)c1Nc1c(-c2ccc(N3CCOCC3)cc2)nc2cnccn12`, the RP-LC retention time worked out at 817 s.
In the case of `Cc1ccc(-c2noc(-c3cccc(S(=O)(=O)Nc4ccccc4)c3)n2)cc1` it was 1200 s; in that of `COCC1CN(C(=O)c2ccc(Br)o2)CCC1(F)F` (stereo not given), 847 s.
In the case of `Cc1nc(C)c(C(=O)N2CCCn3cc(-c4ccccc4F)nc32)s1` it was 679 s; in that of `CCC(C)N(CC(=O)N(Cc1ccco1)CC1CCCO1)C(=O)c1ccc(C)cc1` (stereo not given), 917 s; in that of `COc1ccc(OCC(=O)N2CCC(Nc3cccnc3)C2)cc1` (stereo not given), 726 s.
In the case of `CCc1cccc(NC(=O)c2cc(C(C)C)n3nccc3n2)c1` it was 1240 s; in that of `CCCS(=O)(=O)N1CCc2c(c(CN(C(C)=O)c3ccccc3)nn2C)C1`, 707 s.
Regarding `CSc1cccc(NC(=O)C2CCCN(C(=O)c3ccc(Cl)cc3)C2)c1` (stereo not given), the RP-LC retention time came out at 973 s.
As for `CNc1nc(N2CCCCCC2)nc(-n2cnc(SC)n2)n1`, the figure is 685 s; as for `CCN1CCC(N(Cc2ccc3c(c2)OCO3)C(=O)Nc2cccc(C)c2)CC1`, 691 s.
In the case of `CCN1CCCCc2cc(C(=O)NC3CCS(=O)(=O)C3)sc21` (stereo not given) it was 790 s.
As for `Cc1nc(CSc2cc(-c3ccccc3)ncn2)cs1`, the figure is 907 s; as for `Cc1cc2c(cc1S(=O)(=O)N1CCC(C(=O)N3CCCCC3)CC1)OCC(=O)N2`, 734 s; as for `CCc1ccc(NC(=O)N2CCC(n3cnc4cc(Cl)ccc4c3=O)CC2)cc1`, 877 s.
With `CCCN(CCc1ccccc1)C1CCc2c(O)cccc2C1` (stereo not given), the RP-LC retention time amounted to 768 s.
As for `Cc1nc2c(sc3nc(-c4ccccc4)ccc32)c(=O)n1CC(=O)Nc1ccc(C(F)(F)F)cc1`, the figure is 1280 s; as for `Cc1ncoc1C(=O)N1CCC(c2noc(-c3ccccc3)n2)C1` (stereo not given), 763 s.
In the case of `CN1CCCCCCN(C(=O)C2(c3ccccc3)CC2)[C@H]2CCC[C@H]2C1=O` it was 958 s; in that of `O=C(Nc1ccc(Cl)cc1F)N1CCc2nc[nH]c2C1`, 584 s.
In the case of `O=C(C1=CN(c2ccc(Cl)cc2)c2cc(F)ccc2S1(=O)=O)N1CCOCC1` it was 830 s.
Regarding `CCOC(=O)CC(=O)CSc1nc(-c2ccccc2)ns1`, the RP-LC retention time was 993 s.
In the case of `Cn1cc2c3c(cccc31)CN(C(=O)c1ccccc1F)CC2` it was 875 s; in that of `Cc1ccc(N2CCN(C(=O)C3CCCN(c4nccc5sc(C)cc45)C3)CC2)cc1` (stereo not given), 747 s.
In the case of `Cc1ccc2nc(Cl)cc(=O)n2c1` it was 740 s; in that of `CCS(=O)(=O)N1CC(=O)N(c2ccc(Cl)cc2C)C(C)(C(=O)NCc2ccccc2)C1` (stereo not given), 906 s; in that of `O=C(NCc1cccs1)c1cnn2c(-c3ccc(Cl)cc3)ccnc12`, 983 s.
As for `O=C(Cc1cn2cc(Br)ccc2n1)N1CCc2ccccc2C1`, the figure is 635 s; as for `Cc1nc(-c2noc(-c3ccccc3)n2)cn1CC(=O)NCc1ccc(Cl)cc1`, 866 s; as for `O=C(NCC1CCCO1)c1ccc(NC(=O)C2CCC2)cc1N1CCCCC1` (stereo not given), 617 s.
Turning to `Cc1nc(-c2noc(-c3ccncc3)n2)cn1CC(=O)NCc1ccc(Cl)cc1`, the RP-LC retention time is 683 s.
`Cn1c(=O)oc2cc(-c3noc(-c4ccc(F)cc4)n3)ccc21` gave an RP-LC retention time of 831 s.
As for `CCC(=O)N1CCc2ccccc2C1C(=O)NCc1ccccc1Br` (stereo not given), the figure is 884 s; as for `Cc1ccc(N2CCN(C(=O)c3cn4nc(Cl)ccc4n3)CC2)cc1`, 823 s.
As for `Cc1cc(S(=O)(=O)N(C)CC2CCOCC2)ccc1F`, the figure is 879 s; as for `Cc1nnc(NC(=O)CN2CCC(c3nnc(C(F)(F)F)o3)CC2)s1`, 545 s; as for `Cc1noc(C)c1S(=O)(=O)N1CCC(n2c(C)cnc2-c2cccnc2)C1` (stereo not given), 616 s.
